These results are taken from patent US20130324530A1 (Novartis AG, priority 2010, published 2013).

Cdk9/cyclinT1, sequence (P50750 whole entry): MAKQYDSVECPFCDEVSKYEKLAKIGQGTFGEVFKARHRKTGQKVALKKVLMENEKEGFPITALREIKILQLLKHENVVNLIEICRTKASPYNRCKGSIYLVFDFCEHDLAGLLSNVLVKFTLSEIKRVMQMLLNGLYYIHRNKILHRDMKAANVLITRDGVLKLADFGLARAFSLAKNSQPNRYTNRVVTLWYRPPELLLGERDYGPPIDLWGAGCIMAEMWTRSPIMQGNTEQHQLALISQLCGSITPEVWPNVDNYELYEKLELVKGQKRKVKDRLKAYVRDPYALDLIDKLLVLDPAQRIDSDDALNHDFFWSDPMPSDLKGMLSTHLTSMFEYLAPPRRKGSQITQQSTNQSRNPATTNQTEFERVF
Cdk9/cyclinT1, sequence (O60563 whole entry partner): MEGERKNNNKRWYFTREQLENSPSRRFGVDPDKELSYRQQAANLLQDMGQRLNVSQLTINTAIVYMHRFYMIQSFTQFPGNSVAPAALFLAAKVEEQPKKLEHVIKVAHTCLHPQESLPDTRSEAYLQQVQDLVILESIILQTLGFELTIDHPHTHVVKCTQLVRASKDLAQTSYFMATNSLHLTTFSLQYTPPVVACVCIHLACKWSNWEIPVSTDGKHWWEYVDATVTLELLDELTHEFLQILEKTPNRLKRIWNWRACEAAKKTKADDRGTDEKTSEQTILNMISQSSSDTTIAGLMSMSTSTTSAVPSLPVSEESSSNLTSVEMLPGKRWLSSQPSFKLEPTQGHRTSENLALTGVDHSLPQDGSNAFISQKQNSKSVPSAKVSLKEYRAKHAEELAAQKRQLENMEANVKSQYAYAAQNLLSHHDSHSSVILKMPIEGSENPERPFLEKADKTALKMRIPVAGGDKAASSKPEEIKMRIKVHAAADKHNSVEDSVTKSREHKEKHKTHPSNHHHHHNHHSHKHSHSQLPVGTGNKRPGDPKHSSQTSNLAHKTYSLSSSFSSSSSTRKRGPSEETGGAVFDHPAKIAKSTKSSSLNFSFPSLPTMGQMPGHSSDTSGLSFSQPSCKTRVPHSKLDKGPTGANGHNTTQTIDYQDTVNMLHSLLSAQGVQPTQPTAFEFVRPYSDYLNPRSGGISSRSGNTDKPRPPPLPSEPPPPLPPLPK

This experiment addresses Cdk9/cyclinT1 (Homo sapiens, UniProt P50750). The experiment in a line: Cdk9/CyclinT1 IMAP assay.
Procedure: The final total protein concentration in the assay is 4 nM. […] The final concentration of peptide substrate is 100 nM. […] The final concentration of ATP substrate is 6 uM. IMAP (Immobilized Metal Assay for Phosphochemicals) Progressive Binding reagent is purchased from Molecular Devices, cat#R8139. Fluorescence polarization (FP) is used for detection. The 5TAMRA-cdk7tide peptide is phosphorylated by Cdk9/cyclinT1 kinase using the ATP substrate. The Phospho-5TAMRA-cdk7tide peptide substrate is bound to the IMAP Progressive Binding Reagent. […] IMAP Progressive Binding Reagent is diluted 1:800 in 100% 1× Solution A from Molecular Devices, cat#R7285.
General protocol is as follows: To 10 ul of cdk9/cyclinT1, 0.5 ul of test compound in dimethyl sulfoxide is added. [sequence]-cdk7tide and ATP are mixed. 10 ul of the 5TAMRA-cdk7tide/ATP mix is added to start the reaction. The reaction is allowed to proceed for 4.5 hrs. 60 uL of IMAP Progressive Binding Reagent is added.
`CC(C)(CN)CNc1cc(-c2cncc(NCc3cccc(F)c3)c2)c(Cl)cn1` [Compound 12]: the IC50 (commonly the concentration that inhibits the measured activity by half) amounted to 32 nM. This lies in the double-digit nanomolar range.

As for `CN(C)CC(C)(C)CNc1cc(-c2cncc(NCc3cccc(F)c3)c2)c(Cl)cn1` [Compound 13], the IC50 came to 130 nM. This IC50 lies about 4.1-fold higher than the previous one. The same measure for `COc1cccc(CNc2cncc(-c3cc(N[C@H]4CC[C@H](N)CC4)ncc3Cl)c2)c1` [Compound 15]: 8 nM; for `O[C@H]1CC[C@@H](Nc2cc(-c3cc(NCC4CCOCC4)cnc3Cl)c(Cl)cn2)CC1` [Compound 17]: 25 nM. As for `N[C@H]1CC[C@@H](Nc2cc(-c3cncc(NCc4cccc(F)c4)c3)c(Cl)cn2)CC1` [Compound 21], the figure is 11 nM; as for `N[C@H]1CC[C@H](Nc2cc(-c3cncc(NCc4cccnc4)c3)c(Cl)cn2)CC1` [Compound 22], 9 nM; as for `N[C@H]1CC[C@H](Nc2cc(-c3cncc(NCC4CCCCC4)c3)c(Cl)cn2)CC1` [Compound 23], 10 nM.

`N[C@H]1CC[C@H](Nc2cc(-c3cncc(NCc4cccc(F)c4)c3)c(Cl)cn2)CC1` [Compound 24, N2′-(trans-4-aminocyclohexyl)-5′-chloro-N5-(3-fluorobenzyl)-3,4′-bipyridine-2′,5-diamine]: the 50% inhibitory concentration (IC50) was less than 8 nM. In turn, `Clc1cnc(N[C@H]2CC[C@H](NC[C@H]3CCCO3)CC2)cc1-c1cc(NCC2CCOCC2)cnc1Cl` [Compound 25, 2,5′-dichloro-N5-((tetrahydro-2H-pyran-4-yl)methyl)-N2′-(trans-4-(((R)-tetrahydrofuran-2-yl)methylamino)cyclohexyl)-3,4′-bipyridine-2′,5-diamine] gave a 50% inhibitory concentration (IC50) of less than 8 nM. Turning to `N[C@H]1CC[C@H](Nc2cc(-c3cnc(N4CCOCC4)c(NCC4CCOCC4)c3)c(Cl)cn2)CC1` [Compound 26, N2′-(trans-4-aminocyclohexyl)-5′-chloro-6-morpholino-N5-((tetrahydro-2H-pyran-4-yl)methyl)-3,4′-bipyridine-2′,5-diamine], half-maximal inhibition (IC50) required 1960 nM. On to `Clc1cnc(NC2CC2)cc1-c1cncc(NCC2CCOCC2)c1` [Compound 27], for which the 50% inhibitory concentration (IC50) came out at 57 nM. This IC50 lies about 34-fold lower than the previous one. As for `CN1CCC(CNc2cc(-c3cncc(NCC4CCOCC4)c3)c(Cl)cn2)CC1` [Compound 28], 1970 nM corresponded to half-maximal inhibition (IC50). As for `N[C@H]1CC[C@H](Nc2cc(-c3cncc(NCC4CCCOC4)c3)c(Cl)cn2)CC1` (stereo partly shown) [Compound 29], the figure is 16 nM; as for `OCCNc1cc(-c2cncc(NCc3cccc(F)c3)c2)c(Cl)cn1` [Compound 30], less than 8 nM; as for `CN(C)[C@H]1CC[C@H](Nc2cc(-c3cncc(NCc4cccc(F)c4)c3)c(Cl)cn2)CC1` [Compound 31, 5′-chloro-N2′-(trans-4-(dimethylamino)cyclohexyl)-N5-(3-fluorobenzyl)-3,4′-bipyridine-2′,5-diamine], less than 8 nM. The same measure for `CN(Cc1cccc(F)c1)c1cncc(-c2cc(N[C@H]3CC[C@H](N)CC3)ncc2Cl)c1` [Compound 32]: 16 nM; for `N[C@H]1CC[C@H](Nc2cc(-c3cncc(NCc4ccc(F)cc4)c3)c(Cl)cn2)CC1` [Compound 33]: less than 8 nM; for `Cc1cccc(CNc2cncc(-c3cc(N[C@H]4CC[C@H](N)CC4)ncc3Cl)c2)c1` [Compound 34]: less than 8 nM. `N[C@H]1CC[C@H](Nc2cc(-c3cncc(NCc4ccc(F)c(F)c4)c3)c(Cl)cn2)CC1` [Compound 35]: the half-inhibitory concentration (IC50) was less than 8 nM. As for `CC(=O)N1CCC(CNc2cncc(-c3cc(N[C@H]4CC[C@H](N)CC4)ncc3Cl)c2)CC1` [Compound 36, 1-(4-((2′-(trans-4-aminocyclohexylamino)-5′-chloro-3,4′-bipyridin-5-ylamino)methyl)piperidin-1-yl)ethanone], the figure is 32 nM; as for `OCCNc1cc(-c2cnc(N3CCOCC3)c(NCc3cccc(F)c3)c2)c(Cl)cn1` [Compound 37], 6920 nM. The same measure for `CN(C)CCCCNc1cc(-c2cncc(NCc3cccc(F)c3)c2)c(Cl)cn1` [Compound 38]: 21 nM; for `NC[C@H]1CC[C@H](Nc2cc(-c3cncc(NCc4cccc(F)c4)c3)c(Cl)cn2)CC1` [Compound 39, N2′-(trans-4-(aminomethyl)cyclohexyl)-5′-chloro-N5-(3-fluorobenzyl)-3,4′-bipyridine-2′,5-diamine]: less than 8 nM; for `OCCCNc1cc(-c2cncc(NCc3cccc(F)c3)c2)c(Cl)cn1` [Compound 40]: less than 8 nM.

Molecule `C[C@H](CO)Nc1cc(-c2cncc(NCC3CCOCC3)c2)c(Cl)cn1` [Compound 41] registered an IC50 of 325 nM. The same measure for `N[C@H]1CC[C@H](Nc2cc(-c3cncc(NCc4cccc(Cl)c4)c3)c(Cl)cn2)CC1` [Compound 42]: less than 8 nM; for `N[C@H]1CC[C@H](Nc2cc(-c3cncc(NCc4cc(F)ccc4F)c3)c(Cl)cn2)CC1` [Compound 43]: less than 8 nM; for `N[C@H]1CC[C@H](Nc2cc(-c3cncc(NCc4cccc(F)c4)c3)ccn2)CC1` [Compound 44, N2′-(trans-4-aminocyclohexyl)-N5-(3-fluorobenzyl)-3,4′-bipyridine-2′,5-diamine]: less than 8 nM. `N[C@H]1CC[C@H](Nc2cc(-c3cnc(N4CCOCC4)c(NCc4cccc(F)c4)c3)c(Cl)cn2)CC1` [Compound 45]: the IC50 was 610 nM. The same measure for `O[C@H]1CC[C@H](Nc2cc(-c3cnc(N4CCOCC4)c(NCC4CCOCC4)c3)c(Cl)cn2)CC1` [Compound 46]: 1830 nM; for `Fc1cccc(CNc2cncc(-c3cc(NC4CC4)ncc3Cl)c2)c1` [Compound 47]: less than 8 nM. On to `Fc1cccc(CNc2cncc(-c3cc(NC4CCCC4)ncc3Cl)c2)c1` [Compound 48], for which the concentration for half-maximal inhibition (IC50) was less than 8 nM. `Fc1cccc(CNc2cncc(-c3cc(NCC[C@H]4CCCNC4)ncc3Cl)c2)c1` [Compound 49] registered a concentration for half-maximal inhibition (IC50) of less than 8 nM. On to `NCC(O)CNc1cc(-c2cncc(NCc3cccc(F)c3)c2)c(Cl)cn1` (stereo not shown) [Compound 50], for which the IC50 came out at 10 nM.

`N[C@H]1CC[C@H](Nc2cc(-c3cncc(NCc4ccccc4)c3)c(Cl)cn2)CC1` [Compound 51] gave a 50% inhibitory concentration (IC50) of less than 8 nM. The same measure for `CS(=O)(=O)N1CCC(CNc2cncc(-c3cc(N[C@H]4CC[C@H](N)CC4)ncc3Cl)c2)CC1` [Compound 52]: 35 nM; for `O[C@H]1CC[C@H](Nc2cc(-c3cnc(N4CCOCC4)c(NCc4cccc(F)c4)c3)c(Cl)cn2)CC1` [Compound 53]: 660 nM; for `O[C@H]1CC[C@H](Nc2cc(-c3cnc(F)c(NCC4CCOCC4)c3)c(Cl)cn2)CC1` [Compound 54]: less than 8 nM. As for `N[C@H]1CC[C@H](Nc2cc(-c3cnc(F)c(NCC4CCOCC4)c3)c(Cl)cn2)CC1` [Compound 55, N2′-(trans-4-aminocyclohexyl)-5′-chloro-6-fluoro-N5-((tetrahydro-2H-pyran-4-yl)methyl)-3,4′-bipyridine-2′,5-diamine], the figure is less than 8 nM; as for `Clc1cnc(NCC[C@H]2CCCNC2)cc1-c1cncc(NCC2CCOCC2)c1` [Compound 56], 68 nM; as for `OCCCNc1cc(-c2cncc(NCC3CCOCC3)c2)c(Cl)cn1` [Compound 57], 199 nM.

For `COCCNc1cc(-c2cncc(NCC3CCOCC3)c2)c(Cl)cn1` [Compound 58], the half-inhibitory concentration (IC50) amounted to 2260 nM. The molecule `OCC(CO)Nc1cc(-c2cncc(NCc3cccc(F)c3)c2)c(Cl)cn1` [Compound 59] returned a concentration for half-maximal inhibition (IC50) of 130 nM. The molecule `NCCCNc1cc(-c2cncc(NCc3cccc(F)c3)c2)c(Cl)cn1` [Compound 60] returned a half-maximal inhibitory concentration (IC50) of less than 8 nM. `NCCCCNc1cc(-c2cncc(NCc3cccc(F)c3)c2)c(Cl)cn1` [Compound 61] came in with a 50% inhibitory concentration (IC50) of less than 8 nM.

Molecule `O[C@H]1CC[C@H](Nc2cc(-c3cncc(NCc4cccc(F)c4)c3)c(Cl)cn2)CC1` [Compound 62] had an IC50 of less than 8 nM. In turn, `N[C@H]1CC[C@H](Nc2cc(-c3cncc(NCC4CCOCC4)c3)c(Cl)cn2)CC1` [Compound 63, N2′-(trans-4-aminocyclohexyl)-5′-chloro-N5-((tetrahydro-2H-pyran-4-yl)methyl)-3,4′-bipyridine-2′,5-diamine] had an IC50 of 18 nM. On to `N[C@H]1CC[C@H](Nc2cc(-c3cncc(NCc4cc(F)cc(F)c4)c3)c(Cl)cn2)CC1` [Compound 64], for which the IC50 is less than 8 nM. `Clc1cnc(N[C@H]2CC[C@H](NC[C@@H]3CCCO3)CC2)cc1-c1cc(NCC2CCOCC2)cnc1Cl` [Compound 65] displayed a concentration for half-maximal inhibition (IC50) of less than 8 nM.

The molecule `Fc1cccc(CNc2cc(-c3cc(NC4CCCC4)ncc3Cl)cnc2N2CCOCC2)c1` [Compound 66] displayed an IC50 of 1490 nM. For the molecule `C[C@@H](CO)Nc1cc(-c2cncc(NCC3CCOCC3)c2)c(Cl)cn1` [Compound 67], the midpoint of inhibition, the IC50, lay at 335 nM. The same measure for `OCCNc1cc(-c2cncc(NCC3CCOCC3)c2)c(Cl)cn1` [Compound 68]: 820 nM; for `CN1CCC(CNc2cc(-c3cncc(NCc4cccc(F)c4)c3)c(Cl)cn2)CC1` [Compound 69]: less than 8 nM. Molecule `Fc1cccc(CNc2cncc(-c3cc(NCC4CCOCC4)ncc3Cl)c2)c1` [Compound 70] showed a half-maximal inhibitory concentration (IC50) of 9 nM. The same measure for `N[C@H]1CC[C@H](Nc2cc(-c3cncc(NCc4ccncc4)c3)c(Cl)cn2)CC1` [Compound 71]: less than 8 nM. As for `CO[C@H](CN[C@H]1CC[C@H](Nc2cc(-c3cc(NCC4CCOCC4)cnc3Cl)c(Cl)cn2)CC1)C(F)(F)F` [Compound 72, 2,5′-dichloro-N5-((tetrahydro-2H-pyran-4-yl)methyl)-N2′-(trans-4-((R)-3,3,3-trifluoro-2-methoxypropylamino)cyclohexyl)-3,4′-bipyridine-2′,5-diamine], the figure is 7 nM; as for `O[C@@H](CN[C@H]1CC[C@H](Nc2cc(-c3cc(NCC4CCOCC4)cnc3Cl)c(Cl)cn2)CC1)C(F)(F)F` [Compound 73], 2 nM; as for `O[C@H](CN[C@H]1CC[C@H](Nc2cc(-c3cc(NCC4CCOCC4)cnc3Cl)c(Cl)cn2)CC1)C(F)(F)F` [Compound 74, (R)-3-(trans-4-(2,5′-dichloro-5-((tetrahydro-2H-pyran-4-yl)methyl)amino-3,4′-bipyridin-2′-ylamino)cyclohexylamino)-1,1,1-trifluoropropan-2-ol], 1 nM.
